Reference: patent publication US8916575B2, “Quinazoline derivatives for the treatment of viral infections and further diseases” (Janssen R&D Ireland, priority 2011, dated 2014)

Target: T1, human TLR8 (Homo sapiens, UniProt Q9NR97)
T1 construct: expressed in transfected cells; host or cells: HEK293
T1 sequence (Q9NR97 27-1041): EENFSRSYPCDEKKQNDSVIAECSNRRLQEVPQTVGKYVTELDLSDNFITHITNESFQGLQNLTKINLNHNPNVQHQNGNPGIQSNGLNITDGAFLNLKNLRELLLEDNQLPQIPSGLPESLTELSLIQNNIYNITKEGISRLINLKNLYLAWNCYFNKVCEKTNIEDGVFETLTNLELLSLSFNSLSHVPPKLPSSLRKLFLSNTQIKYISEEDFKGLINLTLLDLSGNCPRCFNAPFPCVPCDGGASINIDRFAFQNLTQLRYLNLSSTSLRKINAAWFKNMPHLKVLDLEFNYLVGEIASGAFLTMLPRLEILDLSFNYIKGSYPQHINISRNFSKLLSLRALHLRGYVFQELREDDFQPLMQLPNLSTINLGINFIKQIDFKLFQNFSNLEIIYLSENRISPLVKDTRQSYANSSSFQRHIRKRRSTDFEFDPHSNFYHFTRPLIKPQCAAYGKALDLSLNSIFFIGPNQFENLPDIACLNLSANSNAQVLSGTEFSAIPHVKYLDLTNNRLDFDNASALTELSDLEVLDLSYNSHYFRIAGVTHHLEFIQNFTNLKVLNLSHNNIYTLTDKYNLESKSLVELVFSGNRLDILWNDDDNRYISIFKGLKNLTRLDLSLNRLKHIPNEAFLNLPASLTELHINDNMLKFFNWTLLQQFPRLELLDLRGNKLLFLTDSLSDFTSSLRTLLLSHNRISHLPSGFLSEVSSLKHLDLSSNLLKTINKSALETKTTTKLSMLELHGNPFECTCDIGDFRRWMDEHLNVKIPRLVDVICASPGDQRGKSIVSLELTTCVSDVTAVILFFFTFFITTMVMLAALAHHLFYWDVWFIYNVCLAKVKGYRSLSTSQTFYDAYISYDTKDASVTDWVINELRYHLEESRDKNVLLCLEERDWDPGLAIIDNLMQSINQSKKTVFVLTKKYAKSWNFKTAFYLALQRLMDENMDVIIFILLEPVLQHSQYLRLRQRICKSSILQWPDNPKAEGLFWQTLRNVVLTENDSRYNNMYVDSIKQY
Experiment: TLR8 wild type NFκB-luc cellular reporter assay
Assay type: cell-based
Design: unit not given here
Conditions: HEK293 NFκB-luc reporter, 6 hours incubation; second part of table
Description: The ability of compounds to activate human TLR7 and/or TLR8 was assessed in a cellular reporter assay using HEK293 cells transiently transfected with a TLR7 or TLR8 expression vector and NFκB-luc reporter construct. In one instance the TLR expression construct expresses the respective wild type sequence or a mutant sequence comprising a deletion in the second leucine-rich repeat of the TLR.
Briefly, HEK293 cells were grown in culture medium (DMEM supplemented with 10% FCS and 2 mM Glutamine). For transfection of cells in 10 cm dishes, cells were detached with Trypsin-EDTA, transfected with a mix of CMV-TLR7 or TLR8 plasmid (750 ng), NFκB-luc plasmid (375 ng) and a transfection reagent and incubated 24 hours at 37° C. in a humidified 5% CO2 atmosphere. Transfected cells were then detached with Trypsin-EDTA, washed in PBS and resuspended in medium to a density of 1.67×10^5 cells/mL. Thirty microliters of cells were then dispensed into each well in 384-well plates, where 10 μL of compound in 4% DMSO was already present. Following 6 hours incubation at 37° C., 5% CO2, the luciferase activity was determined by adding 15 μl of Steady Lite Plus substrate (Perkin Elmer) to each well and readout performed on a ViewLux ultraHTS microplate imager (Perkin Elmer). Dose response curves were generated from measurements performed in quadruplicates. Lowest effective concentrations (LEC) values, defined as the concentration that induces an effect which is at least two fold above the standard deviation of the assay, were determined for each compound.

SMILES	TLR8-wt (LEC)
CCCCNc1nc(N)nc2cccc(OC)c12 [Compound 9]	0.13
CCC[C@@H](CO)Nc1nc(N)nc2cccc(-c3ccccc3)c12 [Compound 10]	>25
CCCCNc1nc(N)nc2cccc(OCCOC)c12 [Compound 11]	0.17
CCCCCNc1nc(N)nc2ccc(Br)cc12 [Compound 13]	0.30
CCCCNc1nc(N)nc2cc(C(=O)OC)ccc12 [Compound 17]	1.66
CCCCNc1nc(N)nc2cc(CO)ccc12 [Compound 18]	0.13
CCCCNc1nc(N)nc2ccc(-n3cnc(C)c3)cc12 [Compound 21]	2.55
CCCCNc1nc(N)nc2ccc(CO)cc12 [Compound 24]	0.22
CCC[C@@H](CCO)Nc1nc(N)nc2ccc(CC)cc12 [Compound 25]	0.45
CCC[C@@H](CCO)Nc1nc(N)nc2ccc(C(C)C)cc12 [Compound 26]	1.97
CCC[C@@H](CCO)Nc1nc(N)nc2ccc(Oc3ccc(C(F)(F)F)cc3Cl)cc12 [Compound 27]	>25
CCCCNc1nc(N)nc2cc(Cl)c3c(c12)OCCO3 [Compound 28]	0.88
CCC[C@@H](CCO)Nc1nc(N)nc2ccc(Oc3ccc(C(F)(F)F)cc3)cc12 [Compound 29]	>25
C#CCOc1cccc2nc(N)nc(NCCCC)c12 [Compound 30]	0.10
CCCCNc1nc(N)nc2cccc(OC(C)C)c12 [Compound 31]	0.24
CCCCNc1nc(N)nc2cccc(CCc3ccccc3)c12 [Compound 32]	0.47
CCC[C@@H](CO)Nc1nc(N)nc2cc(CO)ccc12 [Compound 33]	0.15
CCC[C@@H](CO)Nc1nc(N)nc2ccc(CO)cc12 [Compound 34]	0.27
CCCCNc1nc(N)nc2ccc(Oc3ccc(C(F)(F)F)cc3Cl)cc12 [Compound 35]	>25
CCCCNc1nc(N)nc2cccc(C)c12 [Compound 36]	0.26
CCCCNc1nc(N)nc2c(F)cccc12 [Compound 37]	0.25
CCCCNc1nc(N)nc2ccc(F)cc12 [Compound 38]	0.10

SMILES	TLR8-wt (LEC)
CCCCNc1nc(N)nc2cc(OC)ccc12 [Compound 39]	0.31
CCCCNc1nc(N)nc2ccc(OC)cc12 [Compound 40]	1.83
CCCCNc1nc(N)nc2cccc(Cl)c12 [Compound 41]	0.13
CCCCNc1nc(N)nc2cc(F)c(F)cc12 [Compound 42]	0.14
CCC[C@@H](CO)Nc1nc(N)nc2c(C)cccc12 [Compound 43]	0.12
CCC[C@@H](CO)Nc1nc(N)nc2cc(C)ccc12 [Compound 44]	0.03
CCC[C@@H](CO)Nc1nc(N)nc2ccc(C)cc12 [Compound 45]	0.03
CCC[C@@H](CO)Nc1nc(N)nc2cccc(C)c12 [Compound 46]	0.04
CCC[C@@H](CO)Nc1nc(N)nc2c(F)cccc12 [Compound 47]	0.03
CCC[C@@H](CO)Nc1nc(N)nc2cc(F)ccc12 [Compound 48]	0.01
CCC[C@@H](CO)Nc1nc(N)nc2ccc(F)cc12 [Compound 49]	0.03
CCC[C@@H](CO)Nc1nc(N)nc2cccc(F)c12 [Compound 50]	0.00
CCCC[C@@H](CO)Nc1nc(N)nc2ccc(C)cc12 [Compound 51]	0.04
CCCC[C@@H](CO)Nc1nc(N)nc2cccc(C)c12 [Compound 52]	0.03
CCC[C@@H](CCO)Nc1nc(N)nc2cc(C)ccc12 [Compound 53]	0.05
CCC[C@@H](CCO)Nc1nc(N)nc2ccc(C)cc12 [Compound 54]	0.43
CCC[C@@H](CO)Nc1nc(N)nc2cc(OC)ccc12 [Compound 56]	0.04
CCC[C@@H](CO)Nc1nc(N)nc2ccc(OC)cc12 [Compound 57]	0.53
CCC[C@@H](CO)Nc1nc(N)nc2cccc(OC)c12 [Compound 58]	0.03
CCCC[C@@H](CO)Nc1nc(N)nc2c(F)cccc12 [Compound 59]	0.04
CCCC[C@@H](CO)Nc1nc(N)nc2cc(F)ccc12 [Compound 60]	0.01
CCCC[C@@H](CO)Nc1nc(N)nc2ccc(F)cc12 [Compound 61]	0.05

SMILES	TLR8-wt (LEC)
CCCC[C@@H](CO)Nc1nc(N)nc2cccc(F)c12 [Compound 62]	0.01
CCC[C@@H](CCO)Nc1nc(N)nc2c(F)cccc12 [Compound 63]	0.15
CCC[C@@H](CCO)Nc1nc(N)nc2cc(F)ccc12 [Compound 64]	0.03
CCC[C@@H](CCO)Nc1nc(N)nc2ccc(F)cc12 [Compound 65]	0.44
CCC[C@@H](CCO)Nc1nc(N)nc2cccc(F)c12 [Compound 66]	0.02
CC[C@H](C)[C@@H](CO)Nc1nc(N)nc2c(F)cccc12 [Compound 67]	0.11
CC[C@H](C)[C@@H](CO)Nc1nc(N)nc2ccc(F)cc12 [Compound 68]	0.33
CCC[C@@H](CO)Nc1nc(N)nc2c(Cl)cccc12 [Compound 69]	0.38
CCC[C@@H](CO)Nc1nc(N)nc2cc(Cl)ccc12 [Compound 70]	0.01
CCC[C@@H](CO)Nc1nc(N)nc2cccc(Cl)c12 [Compound 71]	0.01
CCC[C@@H](CO)Nc1nc(N)nc2cc(F)c(F)cc12 [Compound 72]	0.02
CCCC[C@@H](CCO)Nc1nc(N)nc2cc(C)ccc12 [Compound 73]	0.06
CCCC[C@@H](CCO)Nc1nc(N)nc2ccc(C)cc12 [Compound 74]	0.25
CCCC[C@@H](CCO)Nc1nc(N)nc2cccc(C)c12 [Compound 75]	0.06
CCCC[C@@H](CO)Nc1nc(N)nc2cc(OC)ccc12 [Compound 76]	0.04
CCCC[C@@H](CO)Nc1nc(N)nc2ccc(OC)cc12 [Compound 77]	0.62
CCC[C@@H](CCO)Nc1nc(N)nc2cc(OC)ccc12 [Compound 78]	0.13
CCC[C@@H](CCO)Nc1nc(N)nc2ccc(OC)cc12 [Compound 79]	2.97
CC[C@H](C)[C@@H](CO)Nc1nc(N)nc2ccc(OC)cc12 [Compound 80]	4.10
CCCC[C@@H](CCO)Nc1nc(N)nc2c(F)cccc12 [Compound 81]	0.16
CCCC[C@@H](CCO)Nc1nc(N)nc2cc(F)ccc12 [Compound 82]	0.03
